Results from patent US20140235518A1, “AQUEOUS LIQUIDS CONTAINING AN ORGANIC COMPOUND AND AN N-(2-HYDROXYALKYL) SUBSTITUTED N-ALKYLAMINE” (TAMINCO, priority 2011, published 2014).

Assays:
[1] = Condition of challenged test solutions (pH, putrification odor, appearance); details: formula with 4.97% amine at 4% aqueous dilution
Experimental: (§1) The biostability of three fluids containing different amines was assessed in a challenge test format. The three amines used were DCHA (dicyclohexylamine), DBAE (dibutylaminoethanol) and HBHEBA (hydroxybutyl hydroxyethyl butylamine). The test solutions were approximately 100 ml in volume and maintained at RT. The following formula was used at 4% aqueous dilution for testing:
(§2) The second challenge at 3 days was 20 ml of a rancid semi-synthetic coolant with a CFU/ml reading of 10,000,000. A volume of 20 ml was necessary to bring the volume back to the original 100 ml (each CFU/ml measurement removes 10 ml of coolant). The third challenge at 10 days was an additional 20 ml of the 10,000,000 CFU/ml rancid semi-synthetic coolant.

[2] = system: microorganisms in challenged metalworking fluids; assay: Challenge with amines as sole biostabilizing agent (HMB-IV catalase/oxygen pressure CFU); type: cell-based; details: formula with 4.97% amine at 4% aqueous dilution; for CFU one hour after first challenge: CFU/ml
Experimental: as §1
The 100 ml test solutions were initially challenged with 10 ml of a lab maintained rancid soluble oil containing 50% tramp oil with an overall biological count of 8,800,000 CFU/ml. The degree of biological growth throughout the experiment was measured by the HMB-IV (Biotech International, Needville, Tex.) method for determination of the aerobic and facultative biological activity within a liquid metalworking fluid sample. This test method is based on the principle that most of the microorganisms in challenged metalworking fluids produce catalase while they are active. […] A calibrated device is used to measure the amount of oxygen that is produced via the change in the pressure of the headspace within a test tube over a period of 15 minutes.
as §2

[3] = system: microbial population of spoiled coolant; assay: Biostability comparison, soluble oil emulsion diluted in spoiled coolant (CFU by oxygen pressure); type: cell-based; details: diluted 20 to 1 in spoiled coolant water
Experimental: The 100 ml test solutions were initially challenged with 10 ml of a lab maintained rancid soluble oil containing 50% tramp oil with an overall biological count of 8,800,000 CFU/ml. The degree of biological growth throughout the experiment was measured by the HMB-IV (Biotech International, Needville, Tex.) method for determination of the aerobic and facultative biological activity within a liquid metalworking fluid sample. This test method is based on the principle that most of the microorganisms in challenged metalworking fluids produce catalase while they are active. The addition of a known amount of a formulated HMB-IV oxidizing agent (hydrogen peroxide, buffer and chelating chemicals) to a standard volume of the sample fluid in a sealed test tube allows for an amount of oxygen proportional to the amount of active bacteria to be produced via the chemical reaction between active catalase enzyme and the hydrogen peroxide. A calibrated device is used to measure the amount of oxygen that is produced via the change in the pressure of the headspace within a test tube over a period of 15 minutes.
A challenge test comparison of the following soluble oil emulsion was carried out over several days.
The above concentrate formula was used with either 3 or 5 parts of one of the test amines. The soluble oil concentrate was diluted 20 to 1 in stagnant water made up from spoiled coolant (cultured from an original stock of rancid metalworking coolant used in a ferrous alloy cutting operation) which was in turn prepared by diluting 10% of a 60,000,000 CFU per ml of stock spoiled coolant with 90% tap water that had been allowed to air out for 24 hours. The challenge solution, which in this experiment is a control, was calculated to initially contain 6,000,000 CFU per ml microbial population. By the next day, the microbial content of the challenge solution had increased to 13,000,000 CFU per ml. By the end of the trial, the microbial content of the challenge solution had declined to 7,400,000 CFU. The concentration of microbes was determined by oxygen pressure development as described in Example 4.

[4] = Dissolution of HBHEBA in water; type: physicochemical; details: RT
Experimental: Drop weight measurements (i.e., the weight of a drop of one fluid as it is carefully released into another immiscible fluid) were used to evaluate the air/liquid and liquid/liquid interfacial tensions of 5% BDEA(aq) (butyldiethanolamine with C/OH ratio of 4), 5% HBHEEA(aq) (hydroxybutyl hydroxyethyl ethylamine with C/OH ratio of 4) and 2% HBHEBA(aq) (hydroxybutyl hydroxyethyl butylamine with C/OH ratio of 5) solutions at RT (22° C.). Note that a solution of 2% wt/wt of HBHEBA in water takes several minutes to form. About 1% wt/wt of HBHEBA dissolves in water fairly rapidly with stirring, while up to approximately 3% wt/wt can eventually be dissolved if stirring is continued for a longer period of time. The following relationship (oftentimes referred to as Tate's law) is used to relate drop weight to the interfacial tension between the drop fluid and the fluid being “dropped” into: […]

[5] = Interfacial tension by drop weight measurements; type: physicochemical; details: 22° C.
Experimental: Drop weight measurements (i.e., the weight of a drop of one fluid as it is carefully released into another immiscible fluid) were used to evaluate the air/liquid and liquid/liquid interfacial tensions of 5% BDEA(aq) (butyldiethanolamine with C/OH ratio of 4), 5% HBHEEA(aq) (hydroxybutyl hydroxyethyl ethylamine with C/OH ratio of 4) and 2% HBHEBA(aq) (hydroxybutyl hydroxyethyl butylamine with C/OH ratio of 5) solutions at RT (22° C.). Note that a solution of 2% wt/wt of HBHEBA in water takes several minutes to form. About 1% wt/wt of HBHEBA dissolves in water fairly rapidly with stirring, while up to approximately 3% wt/wt can eventually be dissolved if stirring is continued for a longer period of time. The following relationship (oftentimes referred to as Tate's law) is used to relate drop weight to the interfacial tension between the drop fluid and the fluid being “dropped” into:
γ=mactual(1−ρfluid/ρdrop)g/(2πr)
Drop weights were taken 10 at a time and averaged. Three replicates of the drop average were taken to insure accuracy. […] The Table below contains drop weight data of some aqueous AAA solutions as dropped into air and into decane (ρ=0.73 g/ml):
The data for DI water dropped into air is used to standardize the pipette. The surface tension of water/air at 22° C. and 1 bar absolute P is 72 dynes/cm.
Using this value in the equation for DI water gives an orifice radius of 1.2 mm (0.12 cm). All of the measurements were carried out with the same pipette. Using the value of 1.2 mm as the radius of the pipette orifice allows for accurate calculation of the unknown interfacial tensions. Both BDEA and HBHEEA have the same MW and the same total C/OH ratio of 4, but both molecules display distinct interfacial tension properties. […] AAA's of identical total C/OH ratio and identical MW but with differing distribution of hydrophobic and hydrophilic regions display unique properties with respect to solubility, viscosity, volatility, impact on emulsion stability, and assistance to biostability.

[6] = Comparative emulsion stability (p-terphenyl oil / 20% aqueous AAA); type: physicochemical; details: 10 g p-terphenyl oil + 10 g 20% wt/wt aqueous AAA, 10 s vortex
Source text: The emulsion prepared with aqueous N-butyldiethanolamine (BDEA, C/OH ratio=4) was compared to an otherwise identical emulsion prepared with 20% aqueous N-(2-hydroxybutyl)-N-(2-hydroxyethyl)-N-ethylamine (HBHEEA, C/OH ratio=4).

[7] = AAA @ 3% in concentrate (1500 ppm diluted)
[8] = AAA @ 5% in concentrate (2500 ppm diluted)
[9] = 5% (aq) solution dropped into Air
[10] = 5% (aq) solution dropped into Decane

SMILES	pH of test solution @ 25 days [1]	pH of test solution @ 90 days [1]	pH of test solution after first challenge [1]	CFU @ 3 days (2nd challenge) [2]	CFU @ 7 days (4 days after 2nd challenge) [2]	CFU @ 10 days (3rd challenge) [2]	CFU @ 14 days (4 days after 3rd challenge) [2]	CFU @ 25 days (7 days after fresh dilution) [2]	CFU @ 90 days (60 day idle period simulation) [2]	CFU one hour after first challenge [2]	CFU per ml after 1 day [3, 7]	CFU per ml after 4 days [3, 7]	CFU per ml after 1 day [3, 8]	CFU per ml after 4 days [3, 8]	γ Drop to Fluid (air/liquid interfacial tension) [5, 9]	γ Drop to Fluid (liquid/liquid interfacial tension) [5, 10]	other results
C1CCC(NC2CCCCC2)CC1 [DCHA, dicyclohexylamine]	8.2	7.7	9.1	410,000 CFU	3,000,000 CFU	3,900,000 CFU	3,900,000 CFU	4,000,000 CFU	33,000,000 CFU	630,000 CFU	–	–	–	–	–	–	–
CCCCN(CCO)CC(O)CC (stereo not shown) [HBHEBA, N-(2-hydroxybutyl)-N-(2-hydroxyethyl)-N-butylamine]	8.2	7.6	9.1	140,000 CFU	3,300,000 CFU	4,500,000 CFU	2,900,000 CFU	1,700,000 CFU	7,700,000 CFU	610,000 CFU	7.3 CFU per ml × 10^6	5.0 CFU per ml × 10^6	3.0 CFU per ml × 10^6	1.2 CFU per ml × 10^6	–	–	Amount that can eventually be dissolved in water ([4]; stirring continued for a longer period of time): approximately 3 % wt/wt; Amount dissolving in water fairly rapidly ([4]; with stirring): About 1 % wt/wt; γ Drop to Fluid (air/liquid interfacial tension) ([5]; 2% (aq) solution dropped into Air): 34 dynes/cm; γ Drop to Fluid (liquid/liquid interfacial tension) ([5]; 2% (aq) solution dropped into Decane): 8 dynes/cm
CCCCN(CCO)CCCC [DBAE, N,N-dibutylaminoethanol]	8.2	7.7	9.4	310,000 CFU	2,100,000 CFU	4,000,000 CFU	2,500,000 CFU	2,900,000 CFU	8,100,000 CFU	740,000 CFU	–	–	–	–	–	–	–
CCC(O)CN(CC)CCO (stereo not shown) [HBHEEA, N-(2-hydroxybutyl)-N-(2-hydroxyethyl)-ethylamine]	–	–	–	–	–	–	–	–	–	–	–	–	–	–	37 dynes/cm	17 dynes/cm	Emulsion stability (visual) [6]: remained completely opaque with no visible signs of coalescence for several hours
CCCCN(CCO)CCO [BDEA, N-butyldiethanolamine]	–	–	–	–	–	–	–	–	–	–	11 CFU per ml × 10^6	9.0 CFU per ml × 10^6	3.5 CFU per ml × 10^6	2.1 CFU per ml × 10^6	41 dynes/cm	13 dynes/cm	Time to complete phase separation of emulsion [6]: ≤ 30 min; Time to significant oil coalescence of emulsion [6]: ≤ 15 min
